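Growth conditions: 96-well plates. Treatment: test compound, 48 hours, 5 concentrations. Analysis: linear interpolation between bracketing concentrations; unreached endpoints set to highest concentration. Here, GI50 denotes the concentration required for 50% inhibition of growth.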 Activity calls are given as the source filed them. No stated cut-off is given here; in the data, active = GI50 up to about 1.1 µM and inactive = higher. Starred links: 1 amine or outer side, 2 acyl side, 3 side chain; linkers in the order of their positions; H or OH if unused. Non-standard residues stand in square brackets, D forms with d. Residues, ends and D or L forms follow the SMILES beside them. ξ: configuration not given here. X24 = O=C(C(CC(O)CO)O[*:1])[*:2]; Ile(3ξ) = CCC(C)[C@H](N)C(=O)O; NMeV = CN[C@H](C(=O)O)C(C)C; NMeA = CN[C@@H](C)C(=O)O; βAla = NCCC(=O)O
Experiments:
Test in all cases: NCI tumour cell line growth inhibition, 48 h
[1] = tested on: OVCAR-3
[2] = tested on: HCT-116
[3] = tested on: OVCAR-4
[4] = tested on: EKVX
[5] = tested on: K562
[6] = tested on: CCRF-CEM
[7] = tested on: SNB-78
[8] = tested on: RPMI-8226
[9] = tested on: M14
[10] = tested on: A549
[11] = tested on: HOP-92
[12] = tested on: ACHN
[13] = tested on: UACC-62
[14] = tested on: HL-60
[15] = tested on: NCI-H522
[16] = tested on: OVCAR-8
[17] = tested on: MCF7
[18] = tested on: T47D
[19] = tested on: MDA-MB-435
[20] = tested on: MDA-MB-231

Structure (SMILES)	GI50 [1]	GI50 [2]	GI50 [3]	GI50 [4]	GI50 [5]	GI50 [6]	GI50 [7]	GI50 [8]	GI50 [9]	GI50 [10]	GI50 [11]	GI50 [12]	GI50 [13]	GI50 [14]	GI50 [15]	GI50 [16]	GI50 [17]	GI50 [18]	GI50 [19]	GI50 [20]
Cc1cc(Cl)ccc1NC(=O)C1C(=O)C(=O)N(c2ccc(Cl)cc2C)C1=O (centres undefined)	36.9 µM (inactive)	43.8 µM (inactive)	38.6 µM (inactive)	36.8 µM (inactive)	40.6 µM (inactive)	55.6 µM (inactive)	76 µM (inactive)	29 µM (inactive)	31.2 µM (inactive)	> 100 µM (inactive)	14.9 µM (inactive)	> 100 µM (inactive)	63.2 µM (inactive)	> 100 µM (inactive)	60.3 µM (inactive)	56.6 µM (inactive)				
CCC(C)[C@@H]1NC(=O)[C@@H]2CCCN2C(=O)C(CC(O)CO)OC(=O)CCNC(=O)[C@H](C)N(C)C(=O)[C@H](C(C)C)N(C)C1=O (some centres undefined) (cyclo([Ile(3ξ)][NMeV][NMeA][βAla][X24]P))	> 100 µM (inactive)	> 100 µM (inactive)	> 100 µM (inactive)		> 100 µM (inactive)	35.8 µM (inactive)	> 100 µM (inactive)	> 100 µM (inactive)	> 100 µM (inactive)	> 100 µM (inactive)	> 100 µM (inactive)		> 100 µM (inactive)	> 100 µM (inactive)		> 100 µM (inactive)				
COc1cc(C)c(C(=O)/C=C/c2cc(OC)c(O)c(OC)c2)cc1O	25.2 µM (inactive)	14.1 µM (inactive)	21 µM (inactive)	32.4 µM (inactive)	19.4 µM (inactive)	12.5 µM (inactive)	45.5 µM (inactive)	> 100 µM (inactive)	15.3 µM (inactive)	29.3 µM (inactive)		32.8 µM (inactive)	17.7 µM (inactive)	22.1 µM (inactive)	18.1 µM (inactive)	30.2 µM (inactive)				
N#C/C(=N\c1ccccc1N(C(=O)c1ccccc1)C(=O)c1ccccc1)c1ccccc1	8.91 µM (inactive)	6.43 µM (inactive)	32.2 µM (inactive)	> 100 µM (inactive)	3.49 µM (inactive)	2.25 µM (inactive)	> 91 µM (inactive)	5.97 µM (inactive)	> 100 µM (inactive)	9.04 µM (inactive)	24.7 µM (inactive)	> 60.5 µM (inactive)	35.9 µM (inactive)	0.923 µM (active)	4.91 µM (inactive)	10.3 µM (inactive)				
Cc1cc(Cl)cc2c1NC(=O)C2(O)C(C)C(=O)c1ccc(Cl)cc1 (centres undefined)	49.9 µM (inactive)	> 74.1 µM (inactive)	21.8 µM (inactive)	> 81.5 µM (inactive)	> 58.9 µM (inactive)	30.2 µM (inactive)	> 66.2 µM (inactive)	31.8 µM (inactive)	> 100 µM (inactive)	> 100 µM (inactive)	33.9 µM (inactive)	> 100 µM (inactive)	20.2 µM (inactive)	3.15 µM (inactive)	39.9 µM (inactive)	> 85.9 µM (inactive)				
O=C(O)c1c2c(cc3c(=O)cc(-c4ccccc4)oc13)CCCC2	> 100 µM (inactive)	> 100 µM (inactive)	> 100 µM (inactive)	> 100 µM (inactive)	> 100 µM (inactive)	> 100 µM (inactive)	> 100 µM (inactive)	> 100 µM (inactive)	> 100 µM (inactive)	> 100 µM (inactive)	> 100 µM (inactive)	> 100 µM (inactive)	> 100 µM (inactive)		71.4 µM (inactive)	> 100 µM (inactive)				
COc1cc2c3c(c1OC)-c1ccccc1C(C(O)c1ccccc1)C3N(C)CC2 (centres undefined)	34.8 µM (inactive)	19.6 µM (inactive)		90.4 µM (inactive)	25.9 µM (inactive)	26.2 µM (inactive)	65.9 µM (inactive)	21.9 µM (inactive)	18.1 µM (inactive)	39.5 µM (inactive)	53.3 µM (inactive)	39.1 µM (inactive)	7.76 µM (inactive)	20 µM (inactive)	18.2 µM (inactive)	69.3 µM (inactive)				
O=C(/C=C\c1cccc2ccccc12)c1cccs1	11.4 µM (inactive)	3.03 µM (inactive)	17.7 µM (inactive)	12.8 µM (inactive)	2.56 µM (inactive)	2.74 µM (inactive)	15.1 µM (inactive)	2.47 µM (inactive)	15.1 µM (inactive)	16.8 µM (inactive)	11.9 µM (inactive)	11.5 µM (inactive)	9.95 µM (inactive)	3.25 µM (inactive)	2.52 µM (inactive)	7.08 µM (inactive)				
COc1cc(C2C(C(=O)O)=C(COC(C)=O)Oc3cc4c(cc32)OCO4)cc(OC)c1OC(C)=O (centres undefined)	> 100 µM (inactive)	> 100 µM (inactive)	> 100 µM (inactive)	> 100 µM (inactive)	> 100 µM (inactive)	> 100 µM (inactive)	> 100 µM (inactive)	> 100 µM (inactive)	> 100 µM (inactive)	> 100 µM (inactive)	> 100 µM (inactive)	> 100 µM (inactive)	> 100 µM (inactive)	> 100 µM (inactive)		> 100 µM (inactive)				
CC(=O)O[C@H]1CC[C@@]2(C)C(=CC[C@@H]3C2CC[C@]2(C)Nc4c(cnn4-c4ccccc4)CC32)C1 (some centres undefined)	48.2 µM (inactive)	24.4 µM (inactive)	14.9 µM (inactive)	44.6 µM (inactive)		5.51 µM (inactive)	14.4 µM (inactive)	2.09 µM (inactive)	46.1 µM (inactive)	23.7 µM (inactive)		13.8 µM (inactive)	18.7 µM (inactive)	2.77 µM (inactive)		29.4 µM (inactive)				
O=C(O)COc1ccc(O)c2c1C(=O)CCCC2=O	> 100 µM (inactive)	> 100 µM (inactive)	> 100 µM (inactive)	> 100 µM (inactive)	> 100 µM (inactive)	> 100 µM (inactive)	> 100 µM (inactive)	> 100 µM (inactive)	> 100 µM (inactive)	> 100 µM (inactive)		> 100 µM (inactive)	> 100 µM (inactive)	> 100 µM (inactive)	> 100 µM (inactive)	> 100 µM (inactive)				
CCOc1ccc2c(c1)[n+]([O-])c(-c1ccccc1Cl)c(N)[n+]2[O-]	> 100 µM (inactive)	> 100 µM (inactive)	> 100 µM (inactive)	> 100 µM (inactive)	> 100 µM (inactive)	48.2 µM (inactive)	> 100 µM (inactive)		> 100 µM (inactive)	> 100 µM (inactive)	> 100 µM (inactive)	> 100 µM (inactive)		56.5 µM (inactive)	17.4 µM (inactive)	> 100 µM (inactive)				
O=C1NC2C=CN(Cc3ccccc3)C=C2C(=O)N2CCCC12 (centres undefined)	> 100 µM (inactive)	> 100 µM (inactive)	> 100 µM (inactive)	> 100 µM (inactive)		> 100 µM (inactive)	> 100 µM (inactive)		> 100 µM (inactive)	> 100 µM (inactive)	> 100 µM (inactive)	> 100 µM (inactive)	> 100 µM (inactive)	> 100 µM (inactive)	> 100 µM (inactive)	> 100 µM (inactive)				
CC(C)C[C@H](NC(=O)[C@H](CCc1ccccc1)NC(=O)c1ccc2ccccc2n1)B(O)O	< 0.01 µM (active)	< 0.0122 µM (active)	0.185 µM (active)	0.264 µM (active)	0.0439 µM (active)	< 0.01 µM (active)		< 0.01 µM (active)	< 0.0109 µM (active)	0.233 µM (active)	0.0329 µM (active)	< 0.01 µM (active)	0.0973 µM (active)	< 0.01 µM (active)	< 0.0128 µM (active)	0.163 µM (active)	< 0.01 µM (active)	< 0.01 µM (active)	< 0.01 µM (active)	0.134 µM (active)
CCCCOC(=O)Nc1ccc(S(=O)(=O)Nc2ccccc2Cl)cc1	19.1 µM (inactive)	22.4 µM (inactive)	12.4 µM (inactive)	20.7 µM (inactive)	17.5 µM (inactive)	19.2 µM (inactive)		16.3 µM (inactive)	19.8 µM (inactive)	32.5 µM (inactive)	13.7 µM (inactive)	27.8 µM (inactive)	17.1 µM (inactive)	16.9 µM (inactive)	18.5 µM (inactive)	21.3 µM (inactive)	19.2 µM (inactive)	26.5 µM (inactive)	18.8 µM (inactive)	21 µM (inactive)
C#CCn1c(I)cc2c(c1=O)COC(=O)[C@]2(O)CC	> 100 µM (inactive)	> 100 µM (inactive)	> 100 µM (inactive)	> 100 µM (inactive)	> 100 µM (inactive)	> 100 µM (inactive)		> 100 µM (inactive)	> 100 µM (inactive)	> 100 µM (inactive)	> 100 µM (inactive)	> 100 µM (inactive)	> 100 µM (inactive)	> 100 µM (inactive)	> 100 µM (inactive)	> 100 µM (inactive)	> 100 µM (inactive)	> 100 µM (inactive)	> 100 µM (inactive)	> 100 µM (inactive)
COC(=O)C1=C(C)NC(C)=C(C(=O)OC)C1c1ccccc1NO	> 100 µM (inactive)	21.9 µM (inactive)	> 100 µM (inactive)	> 100 µM (inactive)	20.1 µM (inactive)	68.5 µM (inactive)		48.9 µM (inactive)	> 100 µM (inactive)	> 100 µM (inactive)	> 100 µM (inactive)	> 100 µM (inactive)	> 100 µM (inactive)	> 100 µM (inactive)	> 100 µM (inactive)	> 100 µM (inactive)	> 100 µM (inactive)	> 100 µM (inactive)	47.2 µM (inactive)	65.6 µM (inactive)

— ChEMBL document CHEMBL1201862, “PubChem BioAssay data set” (2004)
